Tests used:
[1] = Compound stability in rat liver microsomes; type: in vitro ADME; conditions: for half-life: pH 7.4, 37° C., NADPH, read-out: Rat T1/2; for CLint scaled: pH 7.4, in vivo CLint extrapolated
Protocol: (§1) Human or rat liver microsomes incubations were conducted in duplicate in polypropylene tubes. The typical incubation mixtures consisted of human or rat liver microsomes (0.5 mg protein/mL), compounds of interest (5 μM) and NADPH (1.0 mM) in a total volume of 200 μL potassium phosphate buffer (PBS, 100 mM, pH 7.4). Compounds were dissolved in DMSO and diluted with PBS such that the final concentration of DMSO was 0.05%. The enzymatic reactions were commenced with the addition of protein after a 3-min preincubation and incubated in a water bath open to the air at 37° C. Reactions were terminated at various time points (0, 5, 10, 15, 30, 60 min) by adding equal volume of ice-cold acetonitrile. The samples were stored at −80° C. until LC/MS/MS assays.
(§2) The concentrations of compounds in the incubation mixtures of human or rat liver microsomes were determined by a LC/MS/MS method. The ranges of the linearity in the concentration range were determined for each tested compounds.
(§3) A parallel incubation was performed using denatured microsomes as the negative control, and reactions were terminated at various time points (0, 15, 60 min) after incubation at 37° C.
(§4) Verapamil (1 μM) was selected as the positive control, and reactions were terminated at various time points (0, 5, 10, 15, 30, 60 min) after incubation at 37° C. Both positive and negative control samples were included in each assay to ensure the integrity of the microsomal incubation system.
(§5) In addition, the stability date of compound in human and rat liver microsomes was also obtained through the following method. Human or rat liver microsomes incubations were conducted in duplicate in polypropylene tubes. The typical incubation mixtures consisted of human or rat liver microsomes (0.5 mg protein/mL), compounds of interest (1.5 μM) and EDTA (1.0 mM) in a total volume of 30 μL potassium phosphate buffer (PBS, 100 mM, pH 7.4). Compounds were dissolved in DMSO and diluted with PBS such that the final concentration of DMSO was 0.2%. The enzymatic reactions were commenced with the addition of 15 μL NADPH (final concentration: 2 mM) after a 10-min preincubation and incubated in a water bath open to the air at 37° C. Reactions were terminated at various time points (0, 15, 30, 60 min) by adding 135 μL acetonitrile (contain IS). The samples were centrifuged at 4000 rpm for 10 min to remove protein, the supernatant was stored at −80° C. until LC/MS/MS assays. Ketanserin (1 μM) was selected as the positive control, and reactions were terminated at various time points (0, 15, 30, 60 min) after incubation at 37° C. Both positive and negative control samples were included in each assay to ensure the integrity of the microsomal incubation system.
(§6) The concentrations of compounds in human or rat liver microsome incubations were plotted as a percentage of the relevant zero time point control for each reaction. The in vivo CLint were extrapolated (ref.: Naritomi, Y.; Terashita, S.; Kimura, S.; Suzuki, A.; Kagayama, A.; and Sugiyama, Y.; Prediction of human hepatic clearance from in vivo animal experiments and in vitro metabolic studies with liver microsomes from animals and humans. Drug Metab. Dispos., 2001, 29: 1316-1324).

[2] = Compound stability in human liver microsomes; type: in vitro ADME; conditions: for half-life: pH 7.4, 37° C., NADPH, read-out: Human T1/2; for CLint scaled: pH 7.4, in vivo CLint extrapolated
Protocol: as §1, §2, §3, §4, §5, §6

[3] = Pharmacokinetics after intravenous and oral administration in rats; type: in vivo; conditions: for clearance (CL) / AUC(0-t) / half-life / Vd: iv dosing, 1 mg/kg; for F: oral bioavailability; for AUC(0-t) / half-life / Vd: rat, plasma; for Vd: read-out: Vss
Protocol: The LC/MS/MS system used in the analysis consists of an Agilent 1200 Series vacuum degasser, binary pump, well-plate autosampler, thermostatted column compartment, the Agilent G6430 Triple Quadrupole Mass Spectrometer with an electrosprayionization (ESI) source. Quantitative analysis was carried out using MRM mode. The parameters for MRM transitions are in the Table A.
An Agilent XDB-C18, 2.1×30 mm, 3.5 μM column was used for the analysis. 5 μL of the samples were injected. Analysis condition: The mobile phase was 0.1% formic acid in water (A) and 0.1% formic acid in methanol (B). The flow rate was 0.4 mL/min. And the gradient of Mobile phase was in the Table B.
Alternatively, an Agilent 6330 series LC/MS/MS spectrometer equipped with G1312A binary pumps, a G1367A autosampler and a G1314C UV detector were used in the analysis. An ESI source was used on the LC/MS/MS spectrometer. The analysis was done in positive ion mode as appropriate and the MRM transition for each analyte was optimized using standard solution. A Capcell MP-C18 100×4.6 mm I.D., […] column (Phenomenex, Torrance, Calif., USA) was used during the analysis. The mobile phase was 5 mM ammonia acetate, 0.1% MeOH in water (A): 5 mM ammonia acetate, 0.1% MeOH in acetonitrile (B) (70:30, v/v). The flow rate was 0.6 mL/min. Column was maintained at ambient temperature. 20 μL of the samples were injected.
The compounds disclosed herein are assessed in pharmacokinetic studies in mice, rats, dogs or monkeys. The compounds are administered as a water solution, 2% HPMC+1% TWEEN®80 in water solution, 5% DMSO+5% solutol in saline, 4% MC suspension or capsule. For the intravenous administration, the animals are generally given at 1 or 2 mg/kg dose. For the oral (p.o.) dosing, mice and rats are generally given 5 or 10 mg/kg dose, and dogs and monkeys are generally given 10 mg/kg dose. The blood samples (0.3 mL) are drawn at 0.25, 0.5, 1.0, 2.0, 3.0, 4.0, 6.0, 8.0, 12 and 24 h time points or 0.083, 0.25, 0.5, 1.0, 2.0, 4.0, 6.0, 8.0 and 24 h time points and centrifuged at 3,000 or 4000 rpm for 2 to 10 min. The plasma solutions are collected, and stored at −20° C. or −70° C. until analyzed by LC/MS/MS as described above.

| SMILES | half-life [1] | CLint scaled [1] | half-life [2] | CLint scaled [2] | clearance (CL) [3] | F [3] | AUC(0-t) [3] | half-life [3] | Vd [3] |
| --- | --- | --- | --- | --- | --- | --- | --- | --- | --- |
| Cc1cc(Nc2ncc(Cl)c(NC3CCN(c4ccc(C#N)nn4)CC3)n2)nn1C [Ex. 13, 6-(4-((5-chloro-2-((1,5-dimethyl-1H-pyrazol-3-yl)amino)pyrimidin-4-yl)amino)piperidin-1-yl)pyridazine-3-carbonitrile] | 9.68 min | 257 mL/min/kg | 68.2 min | 25.5 mL/min/kg |  |  |  |  |  |
| Cc1nn(C)cc1Nc1ncc(Cl)c(NC2CCN(c3ccc(C#N)nn3)CC2)n1 [Ex. 11, 6-(4-((5-chloro-2-((1,3-dimethyl-1H-pyrazol-4-yl)amino)pyrimidin-4-yl)amino)piperidin-1-yl)pyridazine-3-carbonitrile] | 23.6 min | 105 mL/min/kg | 13.1 min | 133 mL/min/kg | 1.06 L/h/kg | 61.8% | 931 ng·h/mL | 27 min | 0.62 L/kg |
| Cn1cc(Nc2ncc(Cl)c(NC3CCN(c4ccc(C#N)cn4)CC3)n2)cn1 [Ex. 1, 6-(4-((5-chloro-2-((1-methyl-1H-pyrazol-4-yl)amino)pyrimidin-4-yl)amino)piperidin-1-yl)nicotinonitrile] | 27.7 min | 89.7 mL/min/kg | 40.8 min | 42.6 mL/min/kg | 0.23 L/h/kg | 136.8% | 4660 ng·h/mL | 58.8 min | 0.31 L/kg |
| CN(c1nc(Nc2cnn(C)c2)ncc1Cl)C1CCN(c2ccc(C#N)cn2)CC1 [Ex. 5, 6-(4-((5-chloro-2-((1-methyl-1H-pyrazol-4-yl)amino)pyrimidin-4-yl) (methyl)amino)piperidin-1-yl)nicotinonitrile] | 16.5 min | 150 mL/min/kg | 22.9 min | 75.7 mL/min/kg | 1.78 L/h/kg | 182.46% | 572 ng·h/mL | 30.6 min | 0.67 L/kg |
| Cc1nn(C)cc1Nc1ncc(Cl)c(NC2CCN(c3ccc(C#N)cn3)CC2)n1 [Ex. 10, 6-(4-((5-chloro-2-((1,3-dimethyl-1H-pyrazol-4-yl)amino)pyrimidin-4-yl)amino)piperidin-1-yl)nicotinonitrile] | 17.4 min | 142 mL/min/kg | 5.51 min | 315 mL/min/kg | 0.58 L/h/kg | 75.3% | 1740 ng·h/mL | 43.2 min | 0.63 L/kg |
| Cc1c2ccc(Nc3ncc(Cl)c(NC4CCN(c5ccc(C#N)cn5)CC4)n3)cc2nn1C [Ex. 4] | 23.2 min | 107 mL/min/kg | 13.2 min | 131 mL/min/kg | 0.43 L/h/kg | 78.76% | 2340 ng·h/mL | 103 min | 0.72 L/kg |
| Cc1c2ccc(Nc3ncc(Cl)c(NC4CCN(c5ccc(C#N)nn5)CC4)n3)cc2nn1C [Ex. 12, 6-(4-((5-chloro-2-((2,3-dimethyl-2H-indazol-6-yl)amino)pyrimidin-4-yl)amino)piperidin-1-yl)pyridazine-3-carbonitrile] | 18.9 min | 131 mL/min/kg | 25.3 min | 68.8 mL/min/kg | 0.68 L/h/kg | 39.2% | 1480 ng·h/mL | 29.4 min | 0.5 L/kg |

— patent US10059689B2, “Substituted heteroaryl compounds and methods of use” (Sunshine Lake Pharma Co., Ltd., priority 2014, dated 2018)
